# Data reported in PubChem BioAssay (NCI).
#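 96-well plates; 48 h exposure; 5 concentrations. Endpoints by linear interpolation between flanking doses. Not reached: highest tested concentration assigned. TGI denotes the concentration required for complete inhibition of growth.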
# Tests used:
# Assay in all cases: growth of human tumour cells (NCI), 48 h
# A498 renal = tested on: A498 renal
# A549 NSCLC = tested on: A549 NSCLC
# ACHN renal = tested on: ACHN renal
# CAKI-1 renal = tested on: CAKI-1 renal
# CCRF-CEM leukemia = tested on: CCRF-CEM leukemia
# COLO 205 colon = tested on: COLO 205 colon
# DLD-1 colon = tested on: DLD-1 colon
# DMS 114 small cell lung = tested on: DMS 114 small cell lung
# DMS 273 small cell lung = tested on: DMS 273 small cell lung
# EKVX NSCLC = tested on: EKVX NSCLC
# HCT-116 colon = tested on: HCT-116 colon
# HCT-15 colon = tested on: HCT-15 colon
# HL-60(TB) leukemia = tested on: HL-60(TB) leukemia
# HOP-62 NSCLC = tested on: HOP-62 NSCLC
# HOP-92 NSCLC = tested on: HOP-92 NSCLC
# IGROV1 ovarian = tested on: IGROV1 ovarian
# K-562 leukemia = tested on: K-562 leukemia
# KM12 colon = tested on: KM12 colon
# KM20L2 colon = tested on: KM20L2 colon
# LOX IMVI melanoma = tested on: LOX IMVI melanoma
# LXFL 529 NSCLC = tested on: LXFL 529 NSCLC
# M14 melanoma = tested on: M14 melanoma
# M19-MEL melanoma = tested on: M19-MEL melanoma
# MALME-3M melanoma = tested on: MALME-3M melanoma
# MOLT-4 leukemia = tested on: MOLT-4 leukemia
# NCI-H226 lung = tested on: NCI-H226 lung
# NCI-H23 lung = tested on: NCI-H23 lung
# NCI-H522 lung = tested on: NCI-H522 lung
# OVCAR-3 ovarian = tested on: OVCAR-3 ovarian
# OVCAR-4 ovarian = tested on: OVCAR-4 ovarian
# OVCAR-5 ovarian = tested on: OVCAR-5 ovarian
# OVCAR-8 ovarian = tested on: OVCAR-8 ovarian
# RPMI-8226 leukemia = tested on: RPMI-8226 leukemia
# SF-268 CNS = tested on: SF-268 CNS
# SF-539 CNS = tested on: SF-539 CNS
# SK-MEL-2 melanoma = tested on: SK-MEL-2 melanoma
# SK-MEL-28 melanoma = tested on: SK-MEL-28 melanoma
# SK-MEL-5 melanoma = tested on: SK-MEL-5 melanoma
# SN12C renal = tested on: SN12C renal
# SNB-19 CNS = tested on: SNB-19 CNS
# SNB-75 CNS = tested on: SNB-75 CNS
# SR leukemia = tested on: SR leukemia
# TK-10 renal = tested on: TK-10 renal
# U251 CNS = tested on: U251 CNS
# UACC-257 melanoma = tested on: UACC-257 melanoma
# UACC-62 melanoma = tested on: UACC-62 melanoma
# UO-31 renal = tested on: UO-31 renal
# XF 498 CNS = tested on: XF 498 CNS
# 786-0 renal = tested on: 786-0 renal
# HCC-2998 colon = tested on: HCC-2998 colon
# HOP-18 NSCLC = tested on: HOP-18 NSCLC
# HT29 colon = tested on: HT29 colon
# NCI-H460 lung = tested on: NCI-H460 lung
# RXF 393 renal = tested on: RXF 393 renal
# SF-295 CNS = tested on: SF-295 CNS
# SK-OV-3 ovarian = tested on: SK-OV-3 ovarian
# SNB-78 CNS = tested on: SNB-78 CNS
# SW-620 colon = tested on: SW-620 colon
smiles,measurement,setting,value
CC(C)OP(=O)(OC(C)C)C(=Nc1ccc(N=C(NNc2ccc([N+](=O)[O-])cc2)P(=O)(OC(C)C)OC(C)C)cc1)NNc1ccc([N+](=O)[O-])cc1,TGI,A498 renal,> 100 µM
same,TGI,A549 NSCLC,> 100 µM
same,TGI,ACHN renal,> 100 µM
same,TGI,CAKI-1 renal,> 100 µM
same,TGI,CCRF-CEM leukemia,> 100 µM
same,TGI,COLO 205 colon,> 100 µM
same,TGI,DLD-1 colon,> 100 µM
same,TGI,DMS 114 small cell lung,> 100 µM
same,TGI,DMS 273 small cell lung,> 100 µM
same,TGI,EKVX NSCLC,> 100 µM
same,TGI,HCT-116 colon,> 100 µM
same,TGI,HCT-15 colon,> 100 µM
same,TGI,HL-60(TB) leukemia,> 100 µM
same,TGI,HOP-62 NSCLC,> 100 µM
same,TGI,HOP-92 NSCLC,> 100 µM
same,TGI,IGROV1 ovarian,> 100 µM
same,TGI,K-562 leukemia,> 100 µM
same,TGI,KM12 colon,> 100 µM
same,TGI,KM20L2 colon,> 100 µM
same,TGI,LOX IMVI melanoma,> 100 µM
same,TGI,LXFL 529 NSCLC,> 100 µM
same,TGI,M14 melanoma,> 100 µM
same,TGI,M19-MEL melanoma,> 100 µM
same,TGI,MALME-3M melanoma,> 100 µM
same,TGI,MOLT-4 leukemia,> 100 µM
same,TGI,NCI-H226 lung,> 100 µM
same,TGI,NCI-H23 lung,> 100 µM
same,TGI,NCI-H522 lung,> 100 µM
same,TGI,OVCAR-3 ovarian,> 100 µM
same,TGI,OVCAR-4 ovarian,> 100 µM
same,TGI,OVCAR-5 ovarian,> 100 µM
same,TGI,OVCAR-8 ovarian,> 100 µM
same,TGI,RPMI-8226 leukemia,> 100 µM
same,TGI,SF-268 CNS,> 100 µM
same,TGI,SF-539 CNS,> 100 µM
same,TGI,SK-MEL-2 melanoma,> 100 µM
same,TGI,SK-MEL-28 melanoma,> 100 µM
same,TGI,SK-MEL-5 melanoma,> 100 µM
same,TGI,SN12C renal,> 100 µM
same,TGI,SNB-19 CNS,> 100 µM
same,TGI,SNB-75 CNS,> 100 µM
same,TGI,SR leukemia,> 100 µM
same,TGI,TK-10 renal,> 100 µM
same,TGI,U251 CNS,> 100 µM
same,TGI,UACC-257 melanoma,> 100 µM
same,TGI,UACC-62 melanoma,6.7 µM
same,TGI,UO-31 renal,> 100 µM
same,TGI,XF 498 CNS,> 100 µM
CC1(C)OC2OC(/C=C/[N+](=O)[O-])C3OC(C)(C)OC3C2O1 (configuration not stated),TGI,786-0 renal,27.7 µM
same,TGI,A498 renal,47.1 µM
same,TGI,A549 NSCLC,42.6 µM
same,TGI,ACHN renal,28.8 µM
same,TGI,CAKI-1 renal,14.3 µM
same,TGI,CCRF-CEM leukemia,> 75.7 µM
same,TGI,COLO 205 colon,14.5 µM
same,TGI,DLD-1 colon,4.05 µM
same,TGI,DMS 114 small cell lung,34.5 µM
same,TGI,DMS 273 small cell lung,40.4 µM
same,TGI,EKVX NSCLC,41.9 µM
same,TGI,HCC-2998 colon,31.1 µM
same,TGI,HCT-116 colon,23 µM
same,TGI,HCT-15 colon,5.43 µM
same,TGI,HL-60(TB) leukemia,10.8 µM
same,TGI,HOP-18 NSCLC,40.8 µM
same,TGI,HOP-62 NSCLC,38.3 µM
same,TGI,HOP-92 NSCLC,19.6 µM
same,TGI,HT29 colon,40.1 µM
same,TGI,IGROV1 ovarian,> 74.4 µM
same,TGI,K-562 leukemia,27.5 µM
same,TGI,KM12 colon,31.5 µM
same,TGI,KM20L2 colon,39.6 µM
same,TGI,LOX IMVI melanoma,22.1 µM
same,TGI,LXFL 529 NSCLC,10.1 µM
same,TGI,M14 melanoma,27.3 µM
same,TGI,M19-MEL melanoma,27.7 µM
same,TGI,MALME-3M melanoma,10.8 µM
same,TGI,MOLT-4 leukemia,13.2 µM
same,TGI,NCI-H226 lung,37.1 µM
same,TGI,NCI-H23 lung,37.6 µM
same,TGI,NCI-H460 lung,32.4 µM
same,TGI,NCI-H522 lung,3.36 µM
same,TGI,OVCAR-3 ovarian,34.7 µM
same,TGI,OVCAR-4 ovarian,30.9 µM
same,TGI,OVCAR-5 ovarian,38.1 µM
same,TGI,OVCAR-8 ovarian,40.9 µM
same,TGI,RXF 393 renal,5.99 µM
same,TGI,SF-268 CNS,39.5 µM
same,TGI,SF-295 CNS,36 µM
same,TGI,SF-539 CNS,28.3 µM
same,TGI,SK-MEL-2 melanoma,32.6 µM
same,TGI,SK-MEL-28 melanoma,32.9 µM
same,TGI,SK-MEL-5 melanoma,31.7 µM
same,TGI,SK-OV-3 ovarian,34.8 µM
same,TGI,SN12C renal,31.1 µM
same,TGI,SNB-19 CNS,33.5 µM
same,TGI,SNB-75 CNS,34.8 µM
same,TGI,SNB-78 CNS,44 µM
same,TGI,SR leukemia,33.6 µM
same,TGI,SW-620 colon,9.46 µM
same,TGI,TK-10 renal,9.56 µM
same,TGI,U251 CNS,32.7 µM
same,TGI,UACC-257 melanoma,20.7 µM
same,TGI,UACC-62 melanoma,28.6 µM
same,TGI,UO-31 renal,34.8 µM
COc1cc2c(cc1O)CCN[C@@]21CS[C@H]2c3c(OC(C)=O)c(C)c4c(c3C(COC1=O)N1C2C2NC(Cc3cc(C)c(OC)c(O)c32)[C@@H]1C#N)OCO4 (some centres not stated),TGI,786-0 renal,0.162 µM
same,TGI,ACHN renal,0.721 µM
same,TGI,CCRF-CEM leukemia,0.0525 µM
same,TGI,DLD-1 colon,0.271 µM
same,TGI,DMS 114 small cell lung,< 0.01 µM
same,TGI,EKVX NSCLC,0.125 µM
same,TGI,HCC-2998 colon,< 0.01 µM
same,TGI,HCT-116 colon,1.14 µM
same,TGI,HL-60(TB) leukemia,0.0209 µM
same,TGI,HOP-62 NSCLC,0.0107 µM
same,TGI,HT29 colon,0.16 µM
same,TGI,KM20L2 colon,< 0.01 µM
same,TGI,LXFL 529 NSCLC,0.111 µM
same,TGI,M14 melanoma,< 0.01 µM
same,TGI,M19-MEL melanoma,< 0.01 µM
same,TGI,MALME-3M melanoma,< 0.01 µM
same,TGI,MOLT-4 leukemia,< 0.01 µM
same,TGI,NCI-H226 lung,< 0.01 µM
same,TGI,NCI-H23 lung,< 0.01 µM
same,TGI,OVCAR-4 ovarian,< 0.01 µM
same,TGI,RPMI-8226 leukemia,0.017 µM
same,TGI,RXF 393 renal,< 0.01 µM
same,TGI,SF-268 CNS,0.104 µM
same,TGI,SF-539 CNS,< 0.01 µM
same,TGI,SK-MEL-2 melanoma,< 0.01 µM
same,TGI,SK-MEL-28 melanoma,0.0268 µM
same,TGI,SK-MEL-5 melanoma,< 0.01 µM
same,TGI,SN12C renal,0.115 µM
same,TGI,SNB-19 CNS,1.87 µM
same,TGI,SNB-75 CNS,< 0.01 µM
same,TGI,SR leukemia,> 100 µM
same,TGI,SW-620 colon,1.06 µM
same,TGI,TK-10 renal,61 µM
same,TGI,U251 CNS,0.444 µM
same,TGI,UACC-62 melanoma,< 0.01 µM
same,TGI,XF 498 CNS,< 0.01 µM
C[C@H](O)CCC(=O)c1ccoc1,TGI,786-0 renal,> 100 µM
same,TGI,A498 renal,> 100 µM
same,TGI,A549 NSCLC,> 100 µM
same,TGI,ACHN renal,> 100 µM
same,TGI,CAKI-1 renal,> 100 µM
same,TGI,CCRF-CEM leukemia,> 100 µM
same,TGI,COLO 205 colon,> 100 µM
same,TGI,DLD-1 colon,> 100 µM
same,TGI,DMS 114 small cell lung,> 100 µM
same,TGI,DMS 273 small cell lung,> 100 µM
same,TGI,EKVX NSCLC,> 100 µM
same,TGI,HCC-2998 colon,> 100 µM
same,TGI,HCT-116 colon,> 100 µM
same,TGI,HCT-15 colon,> 100 µM
same,TGI,HL-60(TB) leukemia,> 100 µM
same,TGI,HOP-18 NSCLC,> 100 µM
same,TGI,HOP-62 NSCLC,> 100 µM
same,TGI,HOP-92 NSCLC,> 100 µM
same,TGI,HT29 colon,> 100 µM
same,TGI,IGROV1 ovarian,> 100 µM
same,TGI,K-562 leukemia,> 100 µM
same,TGI,KM12 colon,> 100 µM
same,TGI,KM20L2 colon,> 100 µM
same,TGI,LOX IMVI melanoma,> 100 µM
same,TGI,LXFL 529 NSCLC,> 100 µM
same,TGI,M14 melanoma,> 100 µM
same,TGI,M19-MEL melanoma,> 100 µM
same,TGI,MALME-3M melanoma,> 100 µM
same,TGI,MOLT-4 leukemia,> 100 µM
same,TGI,NCI-H226 lung,> 100 µM
same,TGI,NCI-H23 lung,> 100 µM
same,TGI,NCI-H460 lung,> 100 µM
same,TGI,NCI-H522 lung,> 100 µM
same,TGI,OVCAR-3 ovarian,> 100 µM
same,TGI,OVCAR-4 ovarian,> 100 µM
same,TGI,OVCAR-5 ovarian,> 100 µM
same,TGI,OVCAR-8 ovarian,> 100 µM
same,TGI,RPMI-8226 leukemia,> 100 µM
same,TGI,RXF 393 renal,> 100 µM
same,TGI,SF-268 CNS,> 100 µM
same,TGI,SF-295 CNS,> 100 µM
same,TGI,SF-539 CNS,> 100 µM
same,TGI,SK-MEL-2 melanoma,> 100 µM
same,TGI,SK-MEL-28 melanoma,> 100 µM
same,TGI,SK-MEL-5 melanoma,> 100 µM
same,TGI,SK-OV-3 ovarian,> 100 µM
same,TGI,SN12C renal,> 100 µM
same,TGI,SNB-19 CNS,> 100 µM
same,TGI,SNB-75 CNS,> 100 µM
same,TGI,SNB-78 CNS,> 100 µM
same,TGI,SR leukemia,> 100 µM
same,TGI,SW-620 colon,> 100 µM
same,TGI,TK-10 renal,> 100 µM
same,TGI,U251 CNS,> 100 µM
same,TGI,UACC-257 melanoma,> 100 µM
same,TGI,UACC-62 melanoma,> 100 µM
same,TGI,UO-31 renal,> 100 µM
